In ChEMBL document CHEMBL3045979, “Synthesis and antimicrobial activities of highly functionalised novel -lactam and thiazolidine-grafted tetrahydrobenzothiophenes” (2013) one finds zone of inhibition data, which are given here for 23 molecules.

Holding throughout (type): functional
The test system of one test is Aspergillus niger. The test can be described thus: Antifungal activity against Aspergillus niger ATCC 16404 assessed as growth inhibition at 10 ug/mL after 72 hr by agar cup plate method. The conditions noted are these: ATCC 16404, 72 h, read-out: DIZ.
The test system of another test is Escherichia coli. The test can be described thus: Antibacterial activity against Escherichia coli ATCC 35218 assessed as growth inhibition at 10 ug/mL after 24 hr by agar disc diffusion method. The note with it: ATCC 35218, 24 h, read-out: DIZ. Background: A growth-free zone around the sample is the usual read-out of agar diffusion tests.
For another test, the system named is Aspergillus fumigatus. The test can be described thus: Antifungal activity against Aspergillus fumigatus ATCC 28212 assessed as growth inhibition at 10 ug/mL after 72 hr by agar cup plate method. The conditions noted are these: ATCC 28212, 72 h, read-out: DIZ.
The next test relates to Bacillus spizizenii. Description: Antibacterial activity against Bacillus subtilis subsp. spizizenii ATCC 6633 assessed as growth inhibition at 10 ug/mL after 24 hr by agar disk diffusion method. The conditions noted are these: ATCC 6633, 24 h, read-out: DIZ.

SMILES strings stand for the structures.

For the molecule `CS(=O)(=O)Nc1sc2c(c1C(=O)NN1C(=O)CSC1c1ccccc1)CCCC2` (stereo unspecified), the zone of inhibition at 10 µg/mL is 9 mm in the test on Aspergillus niger, 6 mm in the test with Escherichia coli, 5 mm in the test with Aspergillus fumigatus and 5 mm with Bacillus spizizenii.
As to `CS(=O)(=O)Nc1sc2c(c1C(=O)NN1C(=O)CSC1c1c[nH]c3ccccc13)CCCC2` (stereo unspecified), the zone of inhibition at 10 µg/mL worked out at 18 mm in the test with Aspergillus niger, 10 mm in the test with Escherichia coli, 6 mm in the test on Aspergillus fumigatus and 6 mm in the test on Bacillus spizizenii.
Take `CS(=O)(=O)Nc1sc2c(c1C(=O)NN1C(=O)C(Cl)C1c1cc3ccccc3nc1Cl)CCCC2` (stereo unspecified): the zone of inhibition at 10 µg/mL with Aspergillus niger was 22 mm; with Escherichia coli, 6 mm; with Aspergillus fumigatus, 6 mm; in the test on Bacillus spizizenii, 6 mm.
Regarding `COc1ccc(C2C(Cl)C(=O)N2NC(=O)c2c(NS(C)(=O)=O)sc3c2CCCC3)cc1OC` (stereo unspecified), the zone of inhibition at 10 µg/mL in the test with Aspergillus niger stood at 21 mm; in the test with Escherichia coli, 8 mm; with Aspergillus fumigatus, 9 mm; in the test on Bacillus spizizenii it was 7 mm.
For `CS(=O)(=O)Nc1sc2c(c1C(=O)NN1C(=O)C(Cl)C1c1ccc([N+](=O)[O-])cc1)CCCC2` (stereo unspecified) the same measures were 16 mm, 10 mm, 6 mm and 8 mm.
Take `CS(=O)(=O)Nc1sc2c(c1C(=O)NN1C(=O)CSC1c1ccccc1Cl)CCCC2` (stereo unspecified): the zone of inhibition at 10 µg/mL in the test with Aspergillus niger came to 20 mm; with Escherichia coli, 11 mm; in the test on Aspergillus fumigatus it was 6 mm; in the test with Bacillus spizizenii it was 6 mm.
On to `CS(=O)(=O)Nc1sc2c(c1C(=O)NN1C(=O)CSC1c1cccc([N+](=O)[O-])c1)CCCC2` (stereo unspecified), for which the zone of inhibition at 10 µg/mL in the test with Aspergillus niger is 14 mm; in the test on Escherichia coli, 7 mm; with Aspergillus fumigatus, 6 mm; with Bacillus spizizenii, 7 mm.
Regarding `CS(=O)(=O)Nc1sc2c(c1C(=O)NN1C(=O)C(Cl)C1c1ccccc1Cl)CCCC2` (stereo unspecified), the zone of inhibition at 10 µg/mL with Aspergillus niger is 15 mm; with Escherichia coli, 7 mm; with Aspergillus fumigatus, 6 mm; in the test with Bacillus spizizenii, 7 mm.
On to `CS(=O)(=O)Nc1sc2c(c1C(=O)NN1C(=O)CSC1c1ccc([N+](=O)[O-])cc1)CCCC2` (stereo unspecified), for which the zone of inhibition at 10 µg/mL in the test with Aspergillus niger turned out to be 15 mm; in the test on Escherichia coli it was 10 mm; with Aspergillus fumigatus it was 8 mm; with Bacillus spizizenii, 8 mm.
For the molecule `COc1ccc(C2C(Cl)C(=O)N2NC(=O)c2c(NS(C)(=O)=O)sc3c2CCCC3)cc1` (stereo unspecified), the zone of inhibition at 10 µg/mL came to 12 mm in the test on Aspergillus niger, 8 mm in the test with Escherichia coli, 6 mm in the test with Aspergillus fumigatus and 6 mm in the test with Bacillus spizizenii.
With `CS(=O)(=O)Nc1sc2c(c1C(=O)NN1C(=O)CSC1c1coc3ccccc3c1=O)CCCC2` (stereo unspecified), the zone of inhibition at 10 µg/mL in the test on Aspergillus niger turned out to be 12 mm; in the test on Escherichia coli, 7 mm; in the test with Aspergillus fumigatus, 4 mm; with Bacillus spizizenii it was 7 mm.
As for `COc1ccc(C2SCC(=O)N2NC(=O)c2c(NS(C)(=O)=O)sc3c2CCCC3)cc1` (stereo unspecified), the zone of inhibition at 10 µg/mL turned out to be 14 mm in the test on Aspergillus niger, 11 mm with Escherichia coli, 6 mm with Aspergillus fumigatus and 5 mm in the test on Bacillus spizizenii.
Regarding `Clc1ccccc1C(c1ccccc1)(c1ccccc1)n1ccnc1` [CLOTRIMAZOLE], the zone of inhibition at 10 µg/mL in the test on Aspergillus niger was 21 mm; in the test on Aspergillus fumigatus, 20 mm.
On the same counts, the results for `CC(=O)N1CCN(c2ccc(OCC3COC(Cn4ccnc4)(c4ccc(Cl)cc4Cl)O3)cc2)CC1` (stereo unspecified) [KETOCONAZOLE] are 25 mm and 10 mm.
Consider `CS(=O)(=O)Nc1sc2c(c1C(=O)NN1C(=O)C(Cl)C1c1coc3ccccc3c1=O)CCCC2` (stereo unspecified), for which the zone of inhibition at 10 µg/mL with Aspergillus niger amounted to 14 mm; in the test with Escherichia coli, 8 mm; in the test on Aspergillus fumigatus, 7 mm; in the test on Bacillus spizizenii it was 6 mm.
On the same counts, the results for `CS(=O)(=O)Nc1sc2c(c1C(=O)NN1C(=O)CSC1c1ccc(Cl)cc1)CCCC2` (stereo unspecified) are 13 mm, 8 mm, 7 mm and 8 mm.
For `CS(=O)(=O)Nc1sc2c(c1C(=O)NN1C(=O)C(Cl)C1c1ccc(Cl)cc1)CCCC2` (stereo unspecified) the same measures were 13 mm, 9 mm, 5 mm and 8 mm.
Turning to `COc1ccc(C2SCC(=O)N2NC(=O)c2c(NS(C)(=O)=O)sc3c2CCCC3)cc1OC` (stereo unspecified), the zone of inhibition at 10 µg/mL came to 12 mm with Aspergillus niger, 7 mm in the test with Escherichia coli, 6 mm in the test with Aspergillus fumigatus and 6 mm with Bacillus spizizenii.
As to `CS(=O)(=O)Nc1sc2c(c1C(=O)NN1C(=O)C(Cl)C1c1cccc([N+](=O)[O-])c1)CCCC2` (stereo unspecified), the zone of inhibition at 10 µg/mL in the test on Aspergillus niger was 18 mm; with Escherichia coli, 10 mm; in the test on Aspergillus fumigatus, 8 mm; with Bacillus spizizenii, 7 mm.
With `O=C(O)c1cn(C2CC2)c2cc(N3CCNCC3)c(F)cc2c1=O` [CIPROFLOXACIN], the zone of inhibition at 10 µg/mL with Escherichia coli came to 12 mm; in the test with Bacillus spizizenii, 9 mm.
Consider `CS(=O)(=O)Nc1sc2c(c1C(=O)NN1C(=O)C(Cl)C1c1ccccc1)CCCC2` (stereo unspecified), for which the zone of inhibition at 10 µg/mL in the test with Aspergillus niger was determined as 13 mm; in the test with Escherichia coli, 6 mm; with Aspergillus fumigatus, 4 mm; in the test with Bacillus spizizenii it was 6 mm.
On to `CS(=O)(=O)Nc1sc2c(c1C(=O)NN1C(=O)CSC1c1cc3ccccc3nc1Cl)CCCC2` (stereo unspecified), for which the zone of inhibition at 10 µg/mL in the test with Aspergillus niger turned out to be 19 mm; in the test on Escherichia coli, 8 mm; with Aspergillus fumigatus it was 8 mm; with Bacillus spizizenii, 6 mm.
Turning to `CS(=O)(=O)Nc1sc2c(c1C(=O)NN1C(=O)C(Cl)C1c1c[nH]c3ccccc13)CCCC2` (stereo unspecified), the zone of inhibition at 10 µg/mL in the test with Aspergillus niger came out at 12 mm; in the test with Escherichia coli, 9 mm; in the test on Aspergillus fumigatus, 7 mm; with Bacillus spizizenii it was 7 mm.
